Read-outs that look alike come from different tables or passages of the source. Where only a bound is given, the exact number is not on record here.

In general, IC50 refers to the concentration at which inhibition is half-maximal.

For one experiment, the target named is GCN2 kinase (Homo sapiens, UniProt Q9P2K8). The experiment in a line: GCN2 enzyme inhibition assay (Transcreener ADP2 fluorescence polarization). The experiment is classed as biochemical. The conditions noted are these: 280 μM ATP; for IC50: compounds of Formula IV. The gist of the method: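 Inhibition of 4 nM GCN2 was measured with compound up to 8 μM final, ATP 280 μM and (RS)7 peptide 200 μM over a 1 h, 25 °C reaction. ADP FP readout; IC50 and Ki(app) calculated from percent inhibition.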
Sequence of GCN2 kinase (Q9P2K8 whole entry): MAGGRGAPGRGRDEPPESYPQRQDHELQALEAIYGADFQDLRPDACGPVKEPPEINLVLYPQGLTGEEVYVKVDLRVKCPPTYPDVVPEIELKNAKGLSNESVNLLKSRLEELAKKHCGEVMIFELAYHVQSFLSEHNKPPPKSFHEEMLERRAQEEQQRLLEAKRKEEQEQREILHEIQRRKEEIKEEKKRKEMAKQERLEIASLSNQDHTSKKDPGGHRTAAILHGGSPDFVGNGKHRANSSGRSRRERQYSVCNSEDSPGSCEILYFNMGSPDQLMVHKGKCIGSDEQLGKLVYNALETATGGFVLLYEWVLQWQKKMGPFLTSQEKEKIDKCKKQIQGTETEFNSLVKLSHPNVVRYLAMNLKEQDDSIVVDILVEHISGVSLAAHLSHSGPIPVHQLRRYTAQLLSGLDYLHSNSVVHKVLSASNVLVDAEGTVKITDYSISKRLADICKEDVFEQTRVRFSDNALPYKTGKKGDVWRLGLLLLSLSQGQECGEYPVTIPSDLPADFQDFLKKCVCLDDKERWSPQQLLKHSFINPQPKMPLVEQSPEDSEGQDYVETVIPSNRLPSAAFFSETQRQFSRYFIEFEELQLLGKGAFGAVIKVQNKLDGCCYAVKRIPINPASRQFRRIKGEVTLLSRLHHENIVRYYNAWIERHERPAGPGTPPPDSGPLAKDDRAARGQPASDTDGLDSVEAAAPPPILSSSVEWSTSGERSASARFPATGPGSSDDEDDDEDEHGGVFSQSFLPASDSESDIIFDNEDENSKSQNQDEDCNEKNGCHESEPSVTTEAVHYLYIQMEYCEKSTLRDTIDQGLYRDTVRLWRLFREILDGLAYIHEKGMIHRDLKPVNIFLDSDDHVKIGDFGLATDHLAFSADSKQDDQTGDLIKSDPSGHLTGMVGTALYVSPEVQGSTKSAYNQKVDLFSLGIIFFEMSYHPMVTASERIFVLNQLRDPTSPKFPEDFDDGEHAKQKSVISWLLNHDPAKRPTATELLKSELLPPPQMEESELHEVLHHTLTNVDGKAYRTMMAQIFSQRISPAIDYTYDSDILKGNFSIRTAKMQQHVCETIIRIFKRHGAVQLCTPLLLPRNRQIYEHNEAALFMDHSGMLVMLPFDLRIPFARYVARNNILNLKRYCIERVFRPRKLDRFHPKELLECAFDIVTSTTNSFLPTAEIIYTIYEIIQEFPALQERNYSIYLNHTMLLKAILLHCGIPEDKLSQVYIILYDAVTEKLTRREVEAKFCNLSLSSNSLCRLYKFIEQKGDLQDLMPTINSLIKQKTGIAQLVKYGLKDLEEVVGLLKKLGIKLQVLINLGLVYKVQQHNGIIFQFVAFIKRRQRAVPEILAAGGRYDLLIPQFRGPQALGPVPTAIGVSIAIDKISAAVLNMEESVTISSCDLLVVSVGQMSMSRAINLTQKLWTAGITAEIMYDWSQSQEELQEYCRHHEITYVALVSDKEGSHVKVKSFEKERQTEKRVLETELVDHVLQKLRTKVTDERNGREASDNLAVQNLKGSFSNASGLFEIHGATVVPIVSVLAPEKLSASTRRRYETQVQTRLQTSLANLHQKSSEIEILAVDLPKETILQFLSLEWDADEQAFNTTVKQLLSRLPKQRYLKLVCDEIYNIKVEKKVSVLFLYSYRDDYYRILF
In general terms: Polarisation of emitted light reports the rotation of a fluorescent probe.

The target in experiment [1] is intracellular GCN2 (phosphorylation of the GCN2 substrate eIF2α) (Homo sapiens, UniProt Q9P2K8). The experiment in a line: GCN2 cellular inhibition assay (AlphaScreen SureFire P-eIF2α Ser51, borrelidin-treated U2OS cells). Type of experiment: cell-based. As to the method:
Compounds can be screened for their ability to inhibit intracellular GCN2 using an AlphaScreen assay (Perkin Elmer) to detect phosphorylation of the GCN2 substrate eIF2α in borrelidin-treated cells. U2OS cells are plated at 5,000 cells per well in 384-well white polystyrene plates (Corning 3570) in McCoy's 5 A media (GIBCO 26600-023) supplemented with 10% foetal bovine serum (SAFC 12103C), Penicillin/Streptomycin solution diluted 1:100 (Sigma P0781), and 2 mM L-glutamine (Sigma G7513), and allowed to adhere overnight at 37° C. in 5% CO2. Compounds are then added to the cell media from a final concentration of 40 μM in 4-fold serial dilutions. Borrelidin (FluoroChem M01440) is immediately added to the wells to a final concentration of 10 μM and the cells are incubated for 1 h at 37° C. in 5% CO2. After 1 h of treatment with borrelidin, the media is removed, and the cells are lysed with lysis buffer (TGR BioSciences TGRLB) at ambient temperature.
An AlphaScreen SureFire P-eIF2α (Ser51) assay kit (Perkin Elmer TGREIF2S) was used to measure levels of eIF2α phosphorylated on Serine 51. Anti-phosphorylated eIF2α Ser51 antibody-linked acceptor beads (TGR BioScience 6760617) are added to the cell homogenate (diluted 1:250 into a mixture of activation (TGR BioScience TGRAB) and reaction buffer (TGR BioScience TGREIF2S) prepared immediately before use). The plate is then incubated for 2 h at ambient temperature in the dark. Anti-eIF2α antibody-linked donor beads (TGR BioScience 6760617) were then added (diluted 1:100 in dilution buffer (TGR BioScience TGRDB) prepared immediately before use). The plate is then incubated overnight at ambient temperature in the dark.
Plates are analyzed on an Alpha Technology-compatible PHERAstar FS plate reader (BMG Labtech Version 1.14) to quantify phosphorylated eIF2α Ser51 levels. The percentage inhibition of phosphorylated eIF2α is calculated by comparison to control wells stimulated with borrelidin alone.
A general note: In Alpha technology, singlet oxygen from a donor bead excites a nearby acceptor bead.

Setting [2] is: compounds of Formula II, 4 nM GCN2 kinase.
Where [3] appears, read: compounds of Formula II, biomarker assay, phosphorylated eIF2α Ser51 in borrelidin-treated U2OS cells.
[4] abbreviates: compounds of Formula III, 4 nM GCN2 kinase.
Setting [5] is: compounds of Formula III, U2OS cells, 10 μM borrelidin, 1 h, read-out: GCN2 Biomarker (IC50).
Setting [6] is: compounds of Formula V, 4 nM GCN2 kinase.
[7] abbreviates: compounds of Formula V, U2OS cells, 10 μM borrelidin, 1 h, read-out: GCN2 Biomarker (IC50).
The mark [8] stands for this setting: Enzyme activity for compounds of Formula IV, Ki(app), 25° C.
[9] abbreviates: compounds of Formula IV, biomarker assay, phosphorylated eIF2α Ser51 in borrelidin-treated U2OS cells.

Sequence of intracellular GCN2 (phosphorylation of the GCN2 substrate eIF2α) (Q9P2K8 whole entry): as above

The compound `CS(=O)(=O)N1CC2(CCCN(c3ccnc(-c4cnc5ccc(C(F)F)nn45)c3)C2)C1` registered a Ki on GCN2 kinase (setting [2]) of under 10 nM. The compound also showed an IC50 in experiment [1] (setting [3]) of under 500 nM.
`CC(=O)N1CCN(c2cc(-c3cnn4ccc(C(F)F)nc34)ccn2)CC1` had a Ki on GCN2 kinase (setting [4]) of 10 to 1000 nM. The concentration for half-maximal inhibition (IC50) in experiment [1] (setting [5]) lay within 500 to 5000 nM.
The corresponding values for `CC(=O)N1CCN(c2cc(-c3cnn4ccc(C(F)(F)F)nc34)ccn2)CC1` are 10 to 1000 nM and over 5000 nM.
The compound `CC1C(CNS(C)(=O)=O)N(C)CCN1c1cc(-c2cnc3ccc(C(F)F)nn23)ncn1` (mixture of isomers) [II-312, N-((4-(6-(6-(Difluoromethyl)imidazo[1,2-b]pyridazin-3-yl)pyrimidin-4-yl)-1,3-dimethylpiperazin-2-yl)methyl)methanesulfonamide] displayed a Ki at GCN2 kinase (setting [2]) of under 10 nM. Also, the half-inhibitory concentration (IC50) in experiment [1] (setting [3]) is under 500 nM.
Take `CP(C)(=O)C1CC(c2cn[nH]c2)CN(c2ccnc(-c3cnc4sc(C(F)(F)F)cn34)n2)C1` (racemic) [Compound V-5, 5-[4-[3-Dimethylphosphoryl-5-(1H-pyrazol-4-yl)-1-piperidyl]pyrimidin-2-yl]-2-(trifluoromethyl)imidazo[2,1-b]thiazole]: the Ki on GCN2 kinase (setting [6]) lay within 10 to 100 nM. Besides, in experiment [1] (setting [7]), the IC50 was over 5000 nM.
The corresponding values for `CS(=N)(=O)CC1CCCN(c2ccnc(-c3cnc4sc(C(F)(F)F)cn34)n2)C1` (racemic) [Compound V-18, Imino(methyl)((1-(2-(2-(trifluoromethyl)imidazo[2,1-b]thiazol-5-yl)pyrimidin-4-yl)piperidin-3-yl)methyl)-λ^6-sulfanone] are 100 to 1000 nM and over 5000 nM.
On the same counts, the results for `CS(=N)(=O)CC1CCCN(c2ccnc(-c3cnc4sc(C(F)(F)F)cn34)n2)C1` (racemic) [Compound V-19, Imino(methyl)((1-(2-(2-(trifluoromethyl)imidazo[2,1-b]thiazol-5-yl)pyrimidin-4-yl)piperidin-3-yl)methyl)-λ^6-sulfanone] are 100 to 1000 nM and over 5000 nM.
Compound `CC1(F)CCN(c2cc(-c3cnc4ccc(C(F)F)nn34)ncn2)CC1CNS(C)(=O)=O` (racemic) [II-350, N-((1-(6-(6-(Difluoromethyl)imidazo[1,2-b]pyridazin-3-yl)pyrimidin-4-yl)-4-fluoro-4-methylpiperidin-3-yl)methyl)methanesulfonamide] had a Ki at GCN2 kinase (setting [2]) of under 10 nM. Besides, the half-maximal inhibitory concentration (IC50) in experiment [1] (setting [3]) is under 500 nM.
On the same counts, the results for `CC1CC(C(N)=O)C(C)N(c2cc(-c3cnc4ccc(C(F)(F)F)nn34)ncn2)C1` (racemic) [II-719, 2,5-Dimethyl-1-[6-[6-(trifluoromethyl)imidazo[1,2-b]pyridazin-3-yl]pyrimidin-4-yl]piperidine-3-carboxamide] are 10 to 1000 nM and 500 to 5000 nM.
As to `CC1CC(C(N)=O)C(C)N(c2cc(-c3cnc4ccc(C(F)(F)F)nn34)ncn2)C1` (racemic) [II-720, 2,5-Dimethyl-1-[6-[6-(trifluoromethyl)imidazo[1,2-b]pyridazin-3-yl]pyrimidin-4-yl]piperidine-3-carboxamide], the Ki on GCN2 kinase (setting [2]) lay in the range of 10 to 1000 nM. For the same compound, in experiment [1] (setting [3]), the IC50 lay in the range of 500 to 5000 nM.
`C[C@@H]1CN(c2ccnc(-c3cnc4cnc(C(F)(F)F)cn34)n2)C[C@@H](c2cn[nH]c2)O1` (racemic) [IV-11, Trans-2-Methyl-6-(1H-pyrazol-4-yl)-4-(2-(6-(trifluoromethyl)imidazo[1,2-a]pyrazin-3-yl)pyrimidin-4-yl)morpholine] showed a Ki on GCN2 kinase (setting [8]) of 10 to 100 nM. The IC50 in experiment [1] (setting [9]) was in the range of 500 to 5000 nM.
The corresponding values for `C[C@@H]1CN(c2ccnc(-c3cnc4cnc(C(F)(F)F)cn34)n2)C[C@H](c2cn[nH]c2)O1` (racemic) [IV-12, Cis-2-Methyl-6-(1H-pyrazol-4-yl)-4-(2-(6-(trifluoromethyl)imidazo[1,2-a]pyrazin-3-yl)pyrimidin-4-yl)morpholine] are under 10 nM and under 500 nM.
The corresponding values for `C[C@@H]1CC[C@H](C(N)=O)CN1c1ccnc(-c2cnc3cnc(C(F)F)cn23)n1` (racemic) [IV-106, Cis-1-(2-(6-(Difluoromethyl)imidazo[1,2-a]pyrazin-3-yl)pyrimidin-4-yl)-6-methylpiperidine-3 carboxamide] are 10 to 100 nM and 500 to 5000 nM.
On the same counts, the results for `C[C@H]1[C@@H](C(=O)O)CCCN1c1ccnc(-c2cnc3cnc(C(F)F)cn23)n1` (racemic) [IV-110, Cis-1-(2-(6-(Difluoromethyl)imidazo[1,2-a]pyrazin-3-yl)pyrimidin-4-yl)-2-methylpiperidine-3-carboxylic acid] are 100 to 1000 nM and over 5000 nM.
In the case of `C[C@@H]1CN(c2ccnc(-c3cnc4cnc(Cl)cn34)n2)C[C@H](c2cn[nH]c2)N1` (racemic) [IV-206, Cis-6-Chloro-3-(4-(3-methyl-5-(H-pyrazol-4-yl)piperazin-1-yl)pyrimidin-2-yl)imidazo[1,2-a]pyrazine], the Ki at GCN2 kinase (setting [8]) lay within 10 to 100 nM. Further, the IC50 in experiment [1] (setting [9]) was 500 to 5000 nM.
For `C[C@H]1[C@@H](c2cn[nH]c2)OCCN1c1ccnc(-c2cnc3cnc(C(F)(F)F)cn23)n1` (racemic) [IV-215, Cis-3-Methyl-2-(1H-pyrazol-4-yl)-4-(2-(6-(trifluoromethyl)imidazo[1,2-a]pyrazin-3-yl)pyrimidin-4-yl)morpholine], the Ki on GCN2 kinase (setting [8]) fell in the range of 10 to 100 nM. In addition, in experiment [1] (setting [9]), the concentration for half-maximal inhibition (IC50) was under 500 nM.
The corresponding values for `C[C@@H]1[C@H](c2cn[nH]c2)OCCN1c1ccnc(-c2cnc3cnc(C#N)cn23)n1` (racemic) [IV-280, Cis-3-(4-(3-Methyl-2-(1H-pyrazol-4-yl)morpholino)pyrimidin-2-yl)imidazo[1,2-a]pyrazine-6-carbonitrile] are under 10 nM and under 500 nM.
The corresponding values for `C[C@H]1[C@@H](c2cn[nH]c2)NCCN1c1ccnc(-c2cnc3cnc(Br)cn23)n1` (racemic) [IV-343, Cis-6-Bromo-3-(4-(2-methyl-3-(1H-pyrazol-4-yl)piperazin-1-yl)pyrimidin-2-yl)imidazo[1,2-a]pyrazine] are under 10 nM and under 500 nM.
On to `C[C@@H]1CN(c2ccnc(-c3cnc4cnc(Br)cn34)n2)C[C@H](c2cn[nH]c2)N1` (racemic) [IV-344, Cis-6-Bromo-3-(4-(3-methyl-5-(1H-pyrazol-4-yl)piperazin-1-yl)pyrimidin-2-yl)imidazo[1,2-a]pyrazine], for which the Ki on GCN2 kinase (setting [8]) was in the range of 10 to 100 nM. Besides, in experiment [1] (setting [9]), the IC50 was 500 to 5000 nM.
The corresponding values for `C[C@H]1CN(c2ccnc(-c3cnc4cnc(C(F)(F)F)cn34)n2)C[C@@H](c2c[nH]cn2)N1` (racemic) [IV-379, Cis-3-(4-(3-(1H-Imidazol-4-yl)-5-methylpiperazin-1-yl)pyrimidin-2-yl)-6-(trifluoromethyl)imidazo[1,2-a]pyrazine] are under 10 nM and 500 to 5000 nM.
`C[C@@H]1C[C@H](N=S(C)(C)=O)CN(c2ccnc(-c3cnc4cnc(Cl)cn34)n2)C1` [IV-773, (((3S,5R)-1-(2-(6-chloroimidazo[1,2-a]pyrazin-3-yl)pyrimidin-4-yl)-5-methylpiperidin-3-yl)imino)dimethyl-16-sulfanone] returned an IC50 against GCN2 kinase (4 nM GCN2 kinase) of 10 to 1000 nM.
For `C[C@H]1[C@@H](c2cn[nH]c2)N(C(=O)C2CC2)[C@@H](C)CN1c1ccnc(-c2cnc3cnc(C(F)(F)F)cn23)n1` [IV-778, cyclopropyl((2R,3S,6S)-3,6-dimethyl-2-(1H-pyrazol-4-yl)-4-(2-(6-(trifluoromethyl)imidazo[1,2-a]pyrazin-3-yl)pyrimidin-4-yl)piperazin-1-yl)methanone], the IC50 on GCN2 kinase (4 nM GCN2 kinase) is 10 to 1000 nM.
Same read-out and setting: under `C[C@H]1[C@@H](c2cn[nH]c2)N(C(=O)c2cnoc2)[C@@H](C)CN1c1ccnc(-c2cnc3cnc(C(F)(F)F)cn23)n1` [IV-779, ((2R,3S,6S)-3,6-dimethyl-2-(1H-pyrazol-4-yl)-4-(2-(6-(trifluoromethyl)imidazo[1,2-a]pyrazin-3-yl)pyrimidin-4-yl)piperazin-1-yl)(isoxazol-4-yl)methanone] stands 10 to 1000 nM.

These data come from patent US10988477B2 (Merck Patent GmbH, priority 2018, dated 2021).
